According to patent US8841460B2, “Tunable phenylacetylene hosts” (State of Oregon, acting by and through the State Board of …, priority 2011, dated 2014):

Experiments:
[1] = Photoluminescence quantum yield and Stokes shift in MeCN; type: physicochemical
Method: This example describes general materials and methods used in the synthesis and characterization of exemplary host compounds. All solvents were dried over 3 Å molecular sieves unless otherwise stated. THF, Et3N, and CH2Cl2 were respectively distilled from potassium metal and CaH2 prior to use. All other materials were obtained from TCI-America, Sigma-Aldrich, Acros and Strem and used as received. ^1H and ^13C NMR spectra were recorded using a Varian Inova 300 (^1H 299.95 MHz, ^13C 75.43 MHz) or Inova 500 (^1H 500.10 MHz, ^13C 125.75 MHz) spectrometer. Chemical shifts (δ) expressed as ppm downfield from tetramethylsilane using either the residual solvent peak as an internal standard (CDCl3 ^1H, 7.27 ppm) or using CDCl3 spiked with 1% […] for the ^1H NMR spectra. For the ^13C NMR spectra the middle CDCl3 peak (δ 77.00 ppm) was used as the internal standard. Signal patterns are indicated as b, broad; s, singlet; d, doublet; t, triplet; m, multiplet. Coupling constants (J) are given in hertz. UV-Vis spectra were recorded using a Hewlett-Packard 8453 spectrophotometer and extinction coefficients are expressed in M^−1 cm^−1. Mass spectra were recorded using an Agilent 1100 Series LC/MSD. Emission spectra were recorded on a Hitachi F-4500 fluorescence spectrophotometer. Melting points were determined with a Meltemp II apparatus or a TA Instruments DSC 2920 Modulated DSC. […]

[2] = Absorption/fluorescence response upon addition of TFA; details: reversed by aqueous base
From the text: The absorption spectra of compounds 6-8 and 10 are dominated by a characteristic pattern consisting of three peaks. There is a lack of significant spectral changes associated with conversion of diamide 8 to disulfide 10, which is not unexpected, as overall conjugation remains limited by the methylene spacer.

Quantum Yield (PLQY) [1] | Stokes Shift [1] | Structure (SMILES) | spectral change upon addition of TFA [2]
0.6% | 5270 cm⁻¹ | CC(C)(C)c1ccc(N)c(C#Cc2cccc(C#Cc3cc(C(C)(C)C)ccc3N)n2)c1 [Dianiline 6, 2,2′-(pyridine-2,6-diylbis(ethyne-2,1-diyl))bis(4-tert-butylaniline)] | –
– | – | CC(C)(C)c1ccc2c(c1)C#Cc1cccc(n1)C#Cc1cc(C(C)(C)C)ccc1NC(=O)CSSCC(=O)N2 [disulfide 10] | conversion from a colorless solution with purple fluorescence to a deep yellow solution with yellow fluorescence
